From patent US7396837B2, “Antitumoral analogs of lamellarins” (Pharma Mar, S.A.U., priority 2002, dated 2008)
Where two headings read alike, the source gives them in different places.

Columns and labels:
Assay type in all cases: cell-based
SKOV-3 = assay: SRB colorimetric cell growth inhibition assay, SKOV-3; conditions: Homo sapiens; for GI50: SK-OV-3, SKOV-3, GI=growth inhibition, read-out: GI50 SKOV-3; for LC50 (concentration causing 50% net cell killing) / IC (TGI): SK-OV-3, SKOV-3; for LC50 (concentration causing 50% net cell killing): cell killing (cytotoxic effect), read-out: LC50 SKOV-3; for IC (TGI): total growth inhibition (cytostatic effect), read-out: TGI SKOV-3
Procedure, shortened: (§1)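 Growth inhibition (GI), total growth inhibition (TGI, cytostatic) and lethal concentration (LC, cytotoxic) come from an SRB-based colorimetric measure of growth and viability. Data are triplicate-well means ± SD.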

PANC-1 = assay: SRB colorimetric cell growth inhibition assay, PANC-1; conditions: Homo sapiens; for CC50: LC=cell killing (cytotoxic effect), read-out: LC50 PANC-1; for IC (TGI): TGI=total growth inhibition (cytostatic effect), read-out: TGI PANC-1; for GI50: GI=growth inhibition, read-out: GI50 PANC-1
Procedure, shortened: (§2)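 Read-out: sulforhodamine B colorimetry of surviving cell mass after continued exposure of human tumour lines to sample. Values are means ± SD of three wells, expressed as GI, TGI or LC.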

K-562 = assay: SRB colorimetric cell growth inhibition assay, K-562; conditions: Homo sapiens, K562, K-562; for GI50: GI=growth inhibition, read-out: GI50 K-562; for CC50: LC=cell killing (cytotoxic effect), read-out: LC50 K-562; for IC (TGI): TGI=total growth inhibition (cytostatic effect), read-out: TGI K-562
Procedure, shortened: as §2

LoVo = assay: SRB colorimetric cell growth inhibition assay, LoVo; conditions: Homo sapiens; for CC50: LC=cell killing (cytotoxic effect), read-out: LC50 LOVO; for GI50: GI=growth inhibition, read-out: GI50 LOVO; for IC (TGI): TGI=total growth inhibition (cytostatic effect), read-out: TGI LOVO
Procedure, shortened: as §2

IGROV = assay: SRB colorimetric cell growth inhibition assay, IGROV
Procedure, shortened: as §2

[1] = SRB colorimetric cell growth inhibition assay, H-MEC-1; conditions: human, H-MEC-1, cell killing (cytotoxic effect), read-out: LC50 H-MEC-1
Procedure, shortened: as §1

H-MEC-1 = assay: as above; conditions: Homo sapiens, HMEC-1, H-MEC-1; for GI50: GI=growth inhibition, read-out: GI50 H-MEC-1; for IC (TGI): total growth inhibition (cytostatic effect), read-out: TGI H-MEC-1
Procedure, shortened: as §1

DU-145 = assay: SRB colorimetric cell growth inhibition assay, DU-145; conditions: Homo sapiens; for CC50: cell killing (cytotoxic effect), read-out: LC50 DU-145; for GI50: GI=growth inhibition, read-out: GI50 DU-145; for IC (TGI): total growth inhibition (cytostatic effect), read-out: TGI DU-145
Procedure, shortened: as §2

LoVo-Dox = assay: SRB colorimetric cell growth inhibition assay, LoVo-Dox (MDR)
Procedure, shortened: as §2

A-549 = assay: SRB colorimetric cell growth inhibition assay, A-549; conditions: Homo sapiens, A549, A-549; for GI50: GI=growth inhibition, read-out: GI50 A-549; for CC50: LC=cell killing (cytotoxic effect), read-out: LC50 A-549; for IC (TGI): TGI=total growth inhibition (cytostatic effect), read-out: TGI A-549
Procedure, shortened: as §2

IGROV-ET = assay: SRB colorimetric cell growth inhibition assay, IGROV-ET (ET-743 resistant); conditions: Homo sapiens, IGROV-ET; for GI50: GI=growth inhibition, read-out: GI50 IGROV-ET; for CC50: cell killing (cytotoxic effect), read-out: LC50 IGROV-ET; for IC (TGI): total growth inhibition (cytostatic effect), read-out: TGI IGROV-ET
Procedure, shortened: as §2

LNCaP = assay: SRB colorimetric cell growth inhibition assay, LNCaP; conditions: Homo sapiens, LNCaP, LN-caP; for GI50: GI=growth inhibition, read-out: GI50 LN-caP; for CC50: cell killing (cytotoxic effect), read-out: LC50 LN-caP; for IC (TGI): total growth inhibition (cytostatic effect), read-out: TGI LN-caP
Procedure, shortened: as §2

SK-MEL-28 = assay: SRB colorimetric cell growth inhibition assay, SK-MEL-28; conditions: Homo sapiens, SK-MEL-28, MEL-28; for GI50: GI=growth inhibition, read-out: GI50 MEL-28; for CC50: cell killing (cytotoxic effect), read-out: LC50 MEL-28; for IC (TGI): total growth inhibition (cytostatic effect), read-out: TGI MEL-28
Procedure, shortened: as §2

HT-29 = assay: SRB colorimetric cell growth inhibition assay, HT-29; conditions: Homo sapiens; for CC50: LC=cell killing (cytotoxic effect), read-out: LC50 HT-29; for GI50: GI=growth inhibition, read-out: GI50 HT-29; for IC (TGI): TGI=total growth inhibition (cytostatic effect), read-out: TGI HT-29
Procedure, shortened: as §2

SK-BR-3 = assay: SRB colorimetric cell growth inhibition assay, SK-BR-3; conditions: Homo sapiens; for CC50: cell killing (cytotoxic effect), read-out: LC50 SK-BR-3; for GI50: GI=growth inhibition, read-out: GI50 SK-BR-3; for IC (TGI): total growth inhibition (cytostatic effect), read-out: TGI SK-BR-3
Procedure, shortened: as §2

[2] = Homo sapiens, IGROV; cell killing (cytotoxic effect); read-out: LC50 IGROV
[3] = Homo sapiens, LOVO-DOX; GI=growth inhibition; read-out: GI50 LOVO-DOX
[4] = Homo sapiens, LOVO-DOX; LC=cell killing (cytotoxic effect); read-out: LC50 LOVO-DOX

COc1cc(-c2c3n(c4c(=O)oc5cc(OC(=O)[C@H](Cc6c[nH]c7ccccc67)NC(=O)OC(C)(C)C)c(OC)cc5c24)CCc2cc(OC(=O)[C@H](Cc4c[nH]c5ccccc45)NC(=O)OC(C)(C)C)c(OC)cc2-3)ccc1OC(=O)[C@H](Cc1c[nH]c2ccccc12)NC(=O)OC(C)(C)C [Compound 29]
GI50 (SKOV-3): 1790 nM
LC50 (concentration causing 50% net cell killing) (SKOV-3): 7350 nM
IC (TGI) (SKOV-3): 3900 nM
CC50 (PANC-1; PANC-1, PANC-1): 7350 nM
IC (TGI) (PANC-1; PANC-1, PANC-1): 4230 nM
GI50 (PANC-1; PANC-1): 978 nM
GI50 (K-562): 481 nM
CC50 (K-562): 7350 nM
IC (TGI) (K-562): 3460 nM
CC50 (LoVo; LoVo): 7350 nM
GI50 (LoVo; LOVO): 2910 nM
IC (TGI) (LoVo; LOVO): 7350 nM
CC50 (IGROV; [2]): 7350 nM
GI50 (IGROV; Homo sapiens; IGROV; GI=growth inhibition; read-out: GI50 IGROV): 367 nM
IC (TGI) (IGROV; Homo sapiens; IGROV; total growth inhibition (cytostatic effect); read-out: TGI IGROV): 1660 nM
LC50 (concentration giving 50% net cell killing) [1]: 290 nM
GI50 (H-MEC-1): 24.2 nM
IC (TGI) (H-MEC-1): 52.6 nM
CC50 (DU-145; DU-145, DU-145): 3900 nM
GI50 (DU-145; DU-145): 198 nM
IC (TGI) (DU-145; DU-145): 440 nM
GI50 (LoVo-Dox; [3]): 7350 nM
CC50 (LoVo-Dox; [4]): 7350 nM
IC (TGI) (LoVo-Dox; Homo sapiens; LOVO-DOX; TGI=total growth inhibition (cytostatic effect); read-out: TGI LOVO-DOX): 7350 nM
GI50 (A-549): 1730 nM
CC50 (A-549): 7350 nM
IC (TGI) (A-549): 3630 nM
GI50 (IGROV-ET): 5650 nM
CC50 (IGROV-ET): 7350 nM
IC (TGI) (IGROV-ET): 7350 nM
GI50 (LNCaP): 70.4 nM
CC50 (LNCaP): 396 nM
IC (TGI) (LNCaP): 169 nM
GI50 (SK-MEL-28): 1550 nM
CC50 (SK-MEL-28): 6450 nM
IC (TGI) (SK-MEL-28): 3170 nM
CC50 (HT-29; HT-29, HT-29): 7350 nM
GI50 (HT-29; HT-29): 1840 nM
IC (TGI) (HT-29; HT-29): 5080 nM
CC50 (SK-BR-3; SK-BR-3, SK-BR-3): 7030 nM
GI50 (SK-BR-3; SK-BR-3): 242 nM
IC (TGI) (SK-BR-3; SK-BR-3): 525 nM

COc1cc(-c2c3c4cc(OC)c(OC(=O)[C@@H]5CCCN5)cc4oc(=O)c3n3ccc4c(OC(=O)[C@@H]5CCCN5)c(OC)c(OC)cc4c23)ccc1OC(=O)[C@@H]1CCCN1 [Compound 30]
GI50 (SKOV-3): 348 nM
LC50 (concentration causing 50% net cell killing) (SKOV-3): 5360 nM
IC (TGI) (SKOV-3): 1240 nM
GI50 (PANC-1; PANC-1, PANC-1): 805 nM
CC50 (PANC-1; PANC-1, PANC-1): 5640 nM
IC (TGI) (PANC-1; PANC-1, PANC-1): 2180 nM
GI50 (K-562): 204 nM
CC50 (K-562): 8600 nM
IC (TGI) (K-562): 1100 nM
GI50 (LoVo; LoVo): 383 nM
CC50 (LoVo; LoVo): 3770 nM
IC (TGI) (LoVo; LoVo): 1060 nM
GI50 (IGROV; Homo sapiens, IGROV; GI=growth inhibition; read-out: GI50 IGROV): 350 nM
CC50 (IGROV; [2]): 6990 nM
IC (TGI) (IGROV; Homo sapiens, IGROV; total growth inhibition (cytostatic effect); read-out: TGI IGROV): 1470 nM
LC50 (concentration giving 50% net cell killing) ([1]; H-MEC-1 cells): 840 nM
GI50 (H-MEC-1): 70.5 nM
IC (TGI) (H-MEC-1): 241 nM
GI50 (DU-145; DU-145, DU-145): 53.8 nM
CC50 (DU-145; DU-145, DU-145): 3840 nM
IC (TGI) (DU-145; DU-145, DU-145): 265 nM
GI50 (LoVo-Dox; [3]): 683 nM
CC50 (LoVo-Dox; [4]): 5220 nM
IC (TGI) (LoVo-Dox; Homo sapiens, LOVO-DOX; TGI=total growth inhibition (cytostatic effect); read-out: TGI LOVO-DOX): 1930 nM
GI50 (A-549): 341 nM
CC50 (A-549): 6640 nM
IC (TGI) (A-549): 1270 nM
GI50 (IGROV-ET): 450 nM
CC50 (IGROV-ET): 6630 nM
IC (TGI) (IGROV-ET): 1830 nM
GI50 (LNCaP): 275 nM
CC50 (LNCaP): 4900 nM
IC (TGI) (LNCaP): 1270 nM
GI50 (SK-MEL-28): 251 nM
CC50 (SK-MEL-28): 4420 nM
IC (TGI) (SK-MEL-28): 1080 nM
GI50 (HT-29; HT-29, HT-29): 2810 nM
CC50 (HT-29; HT-29, HT-29): 8600 nM
IC (TGI) (HT-29; HT-29, HT-29): 5060 nM
GI50 (SK-BR-3; SK-BR-3, SK-BR-3): 498 nM
CC50 (SK-BR-3; SK-BR-3, SK-BR-3): 6390 nM
IC (TGI) (SK-BR-3; SK-BR-3, SK-BR-3): 1610 nM
